This note sets out measurements from patent publication US9029329B2, “Caspase-14 activator peptides and compositions comprising said peptides” (ISP Investments Inc., priority 2010, dated 2015).

No end group written: not given here.

One assay has as its system NHK cells. Description: Comets test on UVB-irradiated NHK cells (DNA damage, Tail Moment). In kind it is cell-based, human. As for the experimental part: For this purpose, NHK cells were: • under condition a: cultured for 24 hours with the peptide compound of sequence SEQ ID NO: 3 at a concentration of 1% and 3%, and then irradiated with UVB radiation at 20 mJ/cm^2, in order to observe the protective effect of the peptide active ingredient on the cells; • under condition b: irradiated, in a first step, with UVB radiation at 20 mJ/cm^2, and then treated for 24 hours with said peptide compound at a concentration of 1% and 3%, in order to observe the repairing effect of the active ingredient on the cells.
The cells were then removed by trypsination from their carrier, and then centrifuged at 900 rpm for 5 minutes before being concentrated and counted.
A specific cell count (25,000 cells) was then incorporated into a 0.75% Low Melting agarose gel, and then deposited on a glass slide previously coated with 1% agarose. The slides were then immersed in a lysis solution for 1.5 hours at 4° C., and then in an alkaline solution for 20 minutes at 4° C. The cells were then lysed and the DNA denatured. The slides were immersed in an electrophoresis solution before applying an electric field (20 V-250 mA). The thus denatured DNA was subjected to migration within an agarose gel at 4° C. Applying a DNA fluorescent dye on the slides (2 μg/ml propidium iodide) allowed the DNA to be observed in the form of comets in those cases where it had been damaged.
Quantification software is used to determine the average Tail Moment applied to each condition being tested. This parameter provides information on the level of DNA damage: the higher it is, the greater the DNA damage.

Another assay relates to pro/filaggrin. Description: Pro/filaggrin immunostaining in cultured human skin biopsies. In kind it is cell-based. The note with it: peptide at 1% or 3%, 24 hours and 72 hours, dose-dependent and increases with time. As to the method: Samples of human skin were cultured at the air/liquid interface. Under a first condition, the samples were treated with the 1% peptide SEQ ID NO: 1 for 24 hours and 72 hours. Under a second condition, the samples were treated with the same peptide but at a concentration of 3% for 24 hours and 72 hours.
These skin samples were thereafter fixed with formaldehyde and then incorporated in paraffin. Sections 2 to 3 μm in size were then made. Immunostaining was carried out after unmasking specific sites by incubation in pepsin. Immunostaining was then performed by means of a filaggrin-specific mouse monoclonal antibody (Tebu Santa Cruz), followed by a secondary antibody, coupled with a fluorescent marker. The skin sections were then examined using an epifluorescence microscope (Nikon® Eclipse E600 microscope).

The subject of assay [1] is caspase-14. Description: Caspase-14 expression in normal human keratinocytes by immunofluorescence. The settings on record: NHKs, peptide at 1% or 3%, 24 hours; dose-dependent, greater at 3% than at 1%. In kind it is cell-based. As for the experimental part: Cultured normal human keratinocytes, NHKs, were treated with 1% or 3%-peptide SEQ ID NO: 2 for 24 hours. The cells were then washed, fixed with 3.7%-paraformaldehyde using 0.1%-triton in the presence of bovine serum albumin (BSA) (diluted to 1/100th). The cells were incubated in the presence of a caspase-14-specific mouse monoclonal antibody (BD Biosciences), and then of a secondary antibody, coupled with a fluorescent marker. The cells were then examined by means of an epifluorescence microscope (Nikon® Eclipse E600 microscope).

Assay [2] has as its system caspase-14. In words: Caspase-14 expression by Western Blot in NHKs with or without caspase-14 siRNA. In kind it is cell-based, human. As for the experimental part:
NHK cells were cultured in 6-well plates up to a confluence of 60% and then treated with 20 μL of 1%-peptide SEQ ID NO: 2. Then, 100 μL of a previously prepared mixture containing the siRNA of caspase-14 and the transfecting agent were carefully added dropwise, on a well per well basis. The cell culture plate was incubated at 37° C. and at 5% CO2 for 72 hours. The culture medium was renewed every 2 days. Four conditions were implemented: • condition 1: control containing no siRNA nor peptide active ingredient • condition 2: siRNA-transfected cells, containing no peptide active ingredient • condition 3: cells that are not transfected but treated with the peptide active ingredient • condition 4: cells transfected with siRNA, and treated with the peptide active ingredient
The quantification of caspase-14 expression is observed using the conventional immunoblotting technique (Western Blot) carried out by means of an anti-caspase-14 antibody and according to a conventional protocol. To analyze the compensation brought about by the peptide in the NHKs transfected with siRNA, a comparison was performed with respect to non-treated NHKs whose gene had not been extinguished by siRNA.
For orientation: A western blot detects proteins with antibodies after separation by electrophoresis.

Assay [3] concerns cyclobutane-pyrimidine dimers. Description: CPD immunostaining on human skin biopsies subjected to UVB radiation. In kind it is cell-based. The settings on record: UVB 200 mJ/cm^2, then topical 1% or 3% solution for 24 hours; repair dose-dependent. As for the experimental part: Human skin biopsies were cultured at the air/liquid interface. These biopsies were subjected to UVB radiation at 200 mJ/cm^2. After irradiation, under a first condition, a 1%-solution of peptide SEQ ID NO: 2 was applied topically to the biopsies for 24 hours. Under a second condition, a 3%-solution of peptide SEQ ID NO: 2 was applied topically for 24 hours. Control conditions are achieved by the topical application of a PBS solution after irradiation.
For staining the cyclobutane-pyrimidine dimers, the skin biopsies were incorporated into paraffin and histological 3 μm thick sections were made. The slides were deparaffinized, hydrated and subjected to immunostaining with an antibody directed against cyclobutane-pyrimidine dimers (MBL D194-1, mouse monoclonal), followed by a suitable secondary antibody (Invitrogen™ A21202), coupled with a fluorescent marker. The skin sections were then examined with an epifluorescence microscope (Nikon® Eclipse E 80i microscope).

As to “Asn-Arg-Ile-Gln-Ala-Cys-Arg-Gly-NH2 (NRIQACRG-NH2) [peptide SEQ ID NO: 3]”, the “Tail Moment decrease” value is given as 57% in the assay on NHK cells (condition a: 24 hours pretreatment at 1%, then UVB 20 mJ/cm^2, vs UVB control); 57% in the assay with NHK cells (condition a: 24 hours pretreatment at 3%, then UVB 20 mJ/cm^2, vs UVB control); 31% in the assay on NHK cells (condition b: UVB 20 mJ/cm^2, then 24 hours treatment at 1%); 58% with NHK cells (condition b: UVB 20 mJ/cm^2, then 24 hours treatment at 3%).
Regarding “Asp-Pro-Ile-Gln-Ala-Cys-Arg-Gly-NH2 (DPIQACRG-NH2) [peptide SEQ ID NO: 1]”, the pro/filaggrin staining result with pro/filaggrin is recorded as “increase”.
Turning to “Ile-Gln-Ala-Cys-Arg-Gly-NH2 (IQACRG-NH2) [peptide SEQ ID NO: 2]”, the “light intensity (caspase-14 fluorescence) with respect to the control conditions” value in the assay with caspase-14 [1] was “increase”. The “increase in caspase-14 protein expression with respect to the control” value in the assay with caspase-14 [2] (non-transfected NHKs, 1% peptide, 72 hours (condition 3 vs condition 1)) was determined as 20.9%. The “decrease in caspase-14 protein expression with respect to the control conditions” value in the assay on caspase-14 [2] (siRNA-transfected NHKs treated with 1% peptide, 72 hours (condition 4 vs condition 1)) is reported as 14%. In addition, the “CPD fluorescence compared with the control conditions with UVB radiation” value in assay [3] is on record as “much weaker fluorescence”.
